Usually MIC80 stands for the lowest concentration that inhibits either 80% of growth or 80% of the strains tested, depending on the study.

In brackets after ≈: the same amount, converted by molar mass. Entries after “also recorded” stand apart in the source; their conditions may differ.

The values that follow come from patent US20180072675A1, “ANTIMICROBIAL PYRIDINOHYDRAZIDE AND HYDRAZOMETHYLPYRIDINE-BASED AGENTS” (Board of Supervisors of Louisiana State University and …, priority 2015, published 2018).

Data set [1] deals with protozoal proliferation. The experiment in a line: Protozoal proliferation. Particulars: FIG. 27. Type of data set: cell-based.
Data set [2] relates to Candida albicans (ATCC Accession No. 10231). Description: MIC80 fungal growth inhibition, C. albicans ATCC 10231. Type of data set: cell-based. The following applies: Candida albicans, ATCC10231; Azole-susceptible; >80% growth inhibition, visual scoring; read-out: MIC80 C. albicans ATCC No. 10231. On the procedure: (§1) The antifungal activity of the pyridinohydrazide and hydrazomethylpyridine derivatives described in the s were evaluated in vitro using Candida albicans (ATCC Accession No. 10231) and Candida glabrata (ATCC Accession No. 48435). In addition, the compounds were evaluated for activity against two previously-described clinical isolates of C. albicans known to have developed azole-resistance. These isolates were obtained over a two year period from a single AIDS patient and the development of the azole-resistance mechanisms have been extensively characterized (White T C. Antimicrob. Agents Chemother. (1997) 41: 1482-1487). MIC assays were performed on the clinical isolates 1 and 17 (annotated TW1 and TW17, respectively), where isolate 1 was used as an azole-susceptible control and isolate 17 was considered azole-resistant. All assays were done in accordance with NCCLS reference documents (Clinical Laboratory and Standards Institute. Reference method for Broth Dilution Antifungal Susceptibility Testing of Yeasts: Approved Standard. M27-A3 2010; 28). The results of these screenings are summarized in Tables 1-9 (Examples 20-27) as the minimum concentrations that inhibited more than 80% of fungal growth (MIC80) as compared to positive controls containing 1% DMSO. Assays were performed in HEPES-buffered RPMI-1640 media. All MIC screens used a visual scoring method as opposed to spectroscopic analysis, due to the altered absorbance spectra of many of the compounds.

The test system of data set [3] is C. albicans clinical isolate 1 (TW1). The experiment in a line: MIC80 fungal growth inhibition, clinical isolate TW1. Particulars: Candida albicans; Azole-susceptible; >80% growth inhibition, visual scoring; read-out: MIC80 TW1. It is filed as cell-based, Candida albicans. On the procedure:
as §1

For data set [4], the system named is Candida glabrata (ATCC Accession No. 48435). Description: MIC80 fungal growth inhibition, C. glabrata ATCC 48435. Type of data set: cell-based. Particulars: Nakaseomyces glabratus, ATCC48435; Azole-resistant; >80% growth inhibition, visual scoring; read-out: MIC80 C. glabrata ATCC No. 48435. The protocol:
as §1

For data set [5], the system named is C. albicans clinical isolate 17 (TW17). Description: MIC80 fungal growth inhibition, clinical isolate TW17. Type of data set: cell-based, Candida albicans. Particulars: Candida albicans; Azole-resistant; >80% growth inhibition, visual scoring; read-out: MIC80 TW17. On the procedure: as §1
Data set [6] has as its system Candida spp. The experiment in a line: MIC studies, statements pooled over several isolates. Type of data set: cell-based, Candida albicans, Candida glabrata. Particulars: across all Candida albicans isolates. On the procedure:
as §1

Data set [7] relates to Hep G2 (liver) cells. The experiment in a line: Mammalian cell toxicity, Promega CellTiter 96, liver cells. Particulars: through 10× MIC, 24 h. It is filed as cell-based. On the procedure: (§2) Cytotoxicity was determined using non-cancerous Vero cells (kidney-african green monkey) and liver cells (Hep-2G) in accordance with Promega CellTiter 96 Non-Radioactive Cell Proliferation Assay (cat # G4000). Compounds were diluted in media and all assays were done in triplicate. Average values are presented, with ±SD. Cells were incubated in the presence of the compounds for 24 h at 37° C. and 5% CO2. Tetrazolium dye solution was added to each well and allowed to incubate for 1-4 h. Solubilization/Stop solution was added and allowed to sit at room temperature for 1 h. Formazan product was scored spectrophotometrically with an automatic plate reader set at 570 nm. Positive control wells for cell death were briefly treated with 0.1% saponin, immediately prior to the addition of dye solution. Wells containing 1% DMSO and no drug were used as a negative control and the average absorbance at 570 nm were set to 100%. The percent of cells viable were calculated as a ratio between the average absorption at 570 nm of the drug containing wells/average absorption at 570 nm of the control (no drug). Ratios were multiplied by 100 to give the values as a percentage as expressed on the y-axis.
(§3) Cytotoxicity studies were performed in accordance with Promega CellTiter 96 Non-RadioactivCell Proliferation Assay (cat #G4000). All cytotoxicity studies used a negative control (wells of either kidney or liver cells containing 1% DMSO but lacking the analog), a positive control (wells of either kidney or liver cells treated with the known cytotoxic agent, saponin) and the serial dilutions of the novel analogs. All control (negative) wells were normalized to 100% viable cells to accurately show the percentage of either liver or kidney cells that remained alive and viable following either overnight incubation with the analogs or 5-minute treatment with 0.1% saponin.

The subject of data set [8] is Vero (kidney) cells. The experiment in a line: Mammalian cell toxicity, Promega CellTiter 96, kidney cells. Type of data set: cell-based. The following applies: through 10× MIC, 24 h. The protocol:
as §2, §3

The subject of data set [9] is Candida albicans ATCC Accession No. 10231. The experiment in a line: Checkerboard synergy assay with fluconazole. It is filed as cell-based. On the procedure:
Considering that two different modes of activity (cidal and static) were observed depending on the structural motifs present in our analogs, we performed a series of checkerboard assays to determine if representative active compounds were in fact acting in synergy with the azole, fluconazole. Each of these assays tested multiple concentrations of the selected analog in the presence of multiple concentrations of fluconazole. All checkerboard assays were prepared in 96-well plates. 200 μl of previously prepared drug solutions were added to each well in column 2. Using a multichannel pipette, 100 μl from each well in column 2 was serially diluted (1:2) horizontally across the plate, stopping at column 10. Contents of each well were mixed thoroughly. Column 11 was reserved for fluconazole MIC control and contained no other drug. 100 μl of media was added to each well, column 2-10. Each well was mixed thoroughly with a multichannel pipette. 100 μl was then removed and discarded from these wells. 100 μl of previously prepared fluconazole dilution was added to each well in row B. Using a multichannel pipette, 100 μl from each well was serially diluted (1:2) vertically down the plate, stopping at row F. Contents of each well were mixed thoroughly. Row G was reserved for tested drug MIC control and contained no fluconazole. Well G11 contained neither drug and served as a drug-free growth control. The final 100 μl from each well in row F was discarded.
The fungal samples were prepared from glycerol stocks of Candida albicans ATCC Accession No. 10231. The inoculum's concentration was adjusted to a McFarland standard between 0.08 and 0.12. Inoculum was then diluted at a ratio of 1:37.5 in buffered media. 100 μl of inoculum-media solution was added to each well. Following inoculation, the 96-well plates were wrapped in parafilm to prevent evaporation and incubated for overnight at 35° C. After 18 h, the wells showing growth were recorded.
Synergistic activity was determined based on the MIC read from these plates. The fractional inhibitory concentration (FIC) for a given well is the ratio of the minimum inhibitory concentration of one drug A in the presence another drug B to the minimum inhibitory concentration with only drug A. The FIC was calculated for the test drug in each of the wells along the growth/no-growth interface at varying concentrations of fluconazole, then these values were averaged to determine the average FIC for the test drug. The same process was used to calculate the average FIC for fluconazole at varying concentrations of the test drug. The sum of these two FICs gives the FIC index which can be used to determine the synergistic effect between the two drugs (Hsieh et al., Diagn. Microbiol. Infect. Dis. (1993) 16: 343-349). An FIC index value less than 1 indicated synergistic interactions between the two drugs while an FIC index value greater than or equal to 1 indicated antagonistic interactions.

The subject of data set [10] is Candida strain TW17. Description: Time-kill assay. Type of data set: cell-based, Candida albicans. Particulars: four times the MIC for TW17, 48 h. On the procedure: FIG. 9 illustrates time-kill assays, for representative analogs that were active against the azole-resistant TW17, to determine the cidal or static nature of the analog tested. 100 μl of each sample was spread onto YM agar plates with a sterile bent spreading rod. Plates were incubated at 35° C. overnight and colonies were then counted on each plate.
One of the objectives of this study was to determine the cidal or static nature of the analogs that were active against such as TW17, the azole-resistant clinical isolate. Azoles affect Candida spp. by inhibiting ergosterol biosynthesis, and ultimately prevent their reproduction. This effect has led to the classification of azoles as fungistats. Determining the fungistatic or fungicidal nature of the synthesized compounds of the present disclosure allows a comparison to azoles, in addition to improving the understanding of how the structural motifs might lend toward an alternate mechanism of action. Therefore, time-kill assays were performed using the representative analogs that were active against the azole-resistant TW17 at concentrations at or below 8 μg/mL.
Solid drugs were dissolved in DMSO to a concentration of 10 mg/ml. This stock solution was then further diluted in water to the desired experimental concentration, determined to be four times that of the MIC for the Candida strain TW17 (as reported in the Tables).
Individual colonies of TW17 were suspended in 5 ml of sterile water and adjusted to achieve a McFarland reading between 0.08 and 0.12. The inoculum was then further diluted in sterile water at a ratio of 1:100. Three […] tissue culture tubes were prepared by combining 2.5 ml of above diluted inoculum, 21.7 ml of HEPES buffered RPMI-1640 media, and 800 μl of experimental drug dilution. A “Growth Control” tube was prepared by combining 2.5 ml of inoculum, 21.7 HEPES buffered RPMI-1640 media, and 800 μl of water-DMSO solution equal to the DMSO concentration of the experimental drug dilution. A “Sterile Control” tube was prepared by combining 24.2 ml of HEPES-buffered RPMI-1640 media and 800 μl of water-DMSO solution as in the “Growth Control”. All tubes were incubated for 48 hours at 35° C., 50 rpm. 500 μl samples were taken from the tubes at time points of predetermined intervals during this incubation.
Time points for the “Kill-Curve” and “Growth Control” tubes were taken at 0, 1, 2, 4, 6, 8, 24, and 48 h after the start of incubation. Time points for “Sterile Control” were taken at 0 and 48 hours. Each time point sample was serially diluted 1:10 in sterile 0.9% NaCl solution up to 5 times. 100 μl of each sample was spread onto YM agar plates with a sterile bent spreading rod. Plates were incubated at 35° C. overnight and colonies were then counted on each plate. Colonies on plates from diluted time points were used to estimate uncountable undiluted samples. The number of colonies in undiluted samples was estimated to be 10^n times greater than the diluted sample, where n was the number of dilutions made.

On to `O=C(N/N=C/c1cc([N+](=O)[O-])ccc1O)c1ccncc1` [SA113], for which the “effect on protozoal proliferation” value in [1] is “reduce protozoal proliferation”.
Consider `O=C(N/N=C/c1cc(Cl)ccc1O)c1ccccn1` [AR4, (E)-N′-(5-Chloro-2-hydroxybenzylidene)picolinohydrazide], for which the MIC80 was 1 µg/mL (≈ 3.63 µM) in data set [2], 4 µg/mL (≈ 14.5 µM) in data set [3], 1 µg/mL (≈ 3.63 µM) in data set [4] and 8 µg/mL (≈ 29 µM) in data set [5]. Also, the “effect on protozoal proliferation” value in data set [1] was “reduce protozoal proliferation”.
Turning to `O=C(N/N=C/c1ccccc1O)c1cccnc1O` [AR19], in data set [6], the “growth inhibition (in words)” value is listed as “growth inhibition was observed at very low concentrations”. In addition, the MIC80 in data set [3] is 4 µg/mL (≈ 15.5 µM); in data set [4] it was 1 µg/mL (≈ 3.89 µM); in data set [5], 4 µg/mL (≈ 15.5 µM). In addition, the cell toxicity result in [7] and in [8] was “minimal toxicity” throughout.
Regarding `O=C(N/N=C/c1cc(Br)ccc1O)c1ccccn1` [AR5, (E)-N′-(5-bromo-2-hydroxybenzylidene)picolinohydrazide], the MIC80 in data set [2] is 1 µg/mL (≈ 3.12 µM); in data set [3] it was 2 µg/mL (≈ 6.25 µM); in [4], 4 µg/mL (≈ 12.5 µM); in data set [5] it was 4 µg/mL (≈ 12.5 µM). In addition, in data set [9] (average FIC of fluconazole at varying concentrations of the test drug), the “FIC Fluc” value is 1.00. Besides, the “FIC Test” value in data set [9] (average FIC of the test drug at varying concentrations of fluconazole) is 0.90. Further, the “Activity (interaction with fluconazole)” value in data set [9] (from FIC index) is on record as “Antagonistic”. The “FIC Index” value in data set [9] (sum of the two FICs, <1 synergistic, >=1 antagonistic) is given as 1.90. In [10], the “Cidal vs Static” value is on record as “fungicidal; also recorded: Cidal”. Further, the “effect on protozoal proliferation” value in [1] is reported as “reduce protozoal proliferation”.
